Relative viability data for four compounds are collected here from the supplement of paper PMC10883282.

± gives the standard deviation of the averaged measurements.

The test concerns SYO-1. Description: relative viability vs DMSO control (72 h) (fraction); higher = more viable cells. A digest of the protocol: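 Sarcoma cell lines in 384-well plates, seeded to reach 80–90% confluence, were given compound after 24 h and kept 72 h at 37 °C, 5% CO2, with 0.1% DMSO vehicle and a 5 µM positive control. Relative viability came from ATPLite as percent growth, averaged over up to triplicate wells. On the rescaled values, 1 equals full and 0 equals none.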

As to `C[C@]1(O)C[C@@H](c2nc(-c3ccc4ccc(-c5ccccc5)nc4c3)c3c(N)nccn32)C1` [Linsitinib], the relative viability is 1.01 ± 0.043 (0.00017 µM); 1.01 ± 0.013 (0.00051 µM); 0.97 ± 0.046 (0.00152 µM); 0.969 ± 0.018 (0.00457 µM); 0.922 ± 0.035 (0.01372 µM); 0.87 ± 0.083 (0.04115 µM). Also, the relative viability by setting is: (0.1235 µM) 0.857 ± 0.035; (0.3704 µM) 0.823 ± 0.012; (1.111 µM) 0.833 ± 0.04; (3.333 µM) 0.734 ± 0.025; (10 µM) 0.57 ± 0.028.
With `C=CC(=O)N1CCC([C@@H]2CCNc3c(C(N)=O)c(-c4ccc(Oc5ccccc5)cc4)nn32)CC1` [Zanubrutinib], the relative viability reads like this: (0.00017 µM) 0.982 ± 0.032; (0.00051 µM) 0.978 ± 0.025; (0.00152 µM) 0.976 ± 0.018; (0.00457 µM) 0.979 ± 0.018; (0.01372 µM) 0.984 ± 0.015; (0.04115 µM) 0.9556 ± 0.0067. The relative viability amounted to 0.967 ± 0.018 (0.1235 µM); 0.959 ± 0.06 (0.3704 µM); 0.97 ± 0.061 (1.111 µM); 0.884 ± 0.076 (3.333 µM); 0.763 ± 0.053 (10 µM).
Compound `Cn1cc(-c2cc3c(N4CCN(c5ncc([C@@](C)(N)c6ccc(F)cc6)cn5)CC4)ncnn3c2)cn1` [Avapritinib] yielded a relative viability (0.00017 µM) of 0.92 ± 0.012; a relative viability (0.00051 µM) of 0.898 ± 0.031; a relative viability (0.00152 µM) of 0.882 ± 0.057; a relative viability (0.00457 µM) of 0.844 ± 0.087; a relative viability (0.01372 µM) of 0.807 ± 0.1; a relative viability (0.04115 µM) of 0.718 ± 0.054. Further, the relative viability is, setting by setting: (0.1235 µM) 0.629 ± 0.053; (0.3704 µM) 0.568 ± 0.03; (1.111 µM) 0.534 ± 0.059; (3.333 µM) 0.439 ± 0.039; (10 µM) 0.319 ± 0.023.
Take `CC(=O)Nc1cccc(-n2c(=O)n(C3CC3)c(=O)c3c(Nc4ccc(I)cc4F)n(C)c(=O)c(C)c32)c1` [Trametinib]: the relative viability reads like this: (0.00017 µM) 0.997 ± 0.025; (0.00051 µM) 0.983 ± 0.057; (0.00152 µM) 0.925 ± 0.031; (0.00457 µM) 0.889 ± 0.034; (0.01372 µM) 0.865 ± 0.027; (0.04115 µM) 0.832 ± 0.056. Also, the relative viability was 0.765 ± 0.05 (0.1235 µM); 0.735 ± 0.038 (0.3704 µM); 0.687 ± 0.061 (1.111 µM); 0.687 ± 0.037 (3.333 µM); 0.671 ± 0.048 (10 µM).
